Drawing on patent publication US7470679B2, “Constrained compounds as CGRP-receptor antagonists” (Bristol-Myers Squibb Company, priority 2006, dated 2008), this text covers IC50 for 20 compounds.

SMILES strings stand for the structures. Bounds are passed on as bounds.

The term IC50 denotes the midpoint of a concentration-inhibition curve.

The target in one assay is T1, CGRP receptor (Homo sapiens, UniProt O60894+Q16602). The experiment in a line: CGRP Binding Assay ([125I]-CGRP radioligand displacement, SK-N-MC homogenate). Set-up: endogenous in cells; host or cells: SK-N-MC cells (membrane homogenate). Conditions: Table 1, displacement of [125I]-CGRP. As to the method: CGRP Binding Assay. Tissue Culture. SK—N-MC cells were grown at 37° C. in 5% CO2 as a monolayer in medium consisting of MEM with Earle's salts and L-glutamine (Gibco) supplemented with 10% fetal bovine serum (Gibco). Cell Pellets. The cells were rinsed twice with phosphate-buffered saline (155 mM NaCl, 3.3 mM Na2HPO4, 1.1 mM KH2PO4, pH 7.4), and incubated for 5-10 min. at 4° C. in hypotonic lysis buffer consisting of 10 mM Tris (pH 7.4) and 5 mM EDTA. The cells were transferred from plates to polypropylene tubes (16×100 mm) and homogenized using a polytron. Homogenates were centrifuged at 32,000×g for 30 min. The pellets were resuspended in cold hypotonic lysis buffer with 0.1% mammalian protease inhibitor cocktail (Sigma) and assayed for protein concentration. The SK—N-MC homogenate was then aliquoted and stored at −80° C. until needed.
T1 sequence (Q16602 23-461): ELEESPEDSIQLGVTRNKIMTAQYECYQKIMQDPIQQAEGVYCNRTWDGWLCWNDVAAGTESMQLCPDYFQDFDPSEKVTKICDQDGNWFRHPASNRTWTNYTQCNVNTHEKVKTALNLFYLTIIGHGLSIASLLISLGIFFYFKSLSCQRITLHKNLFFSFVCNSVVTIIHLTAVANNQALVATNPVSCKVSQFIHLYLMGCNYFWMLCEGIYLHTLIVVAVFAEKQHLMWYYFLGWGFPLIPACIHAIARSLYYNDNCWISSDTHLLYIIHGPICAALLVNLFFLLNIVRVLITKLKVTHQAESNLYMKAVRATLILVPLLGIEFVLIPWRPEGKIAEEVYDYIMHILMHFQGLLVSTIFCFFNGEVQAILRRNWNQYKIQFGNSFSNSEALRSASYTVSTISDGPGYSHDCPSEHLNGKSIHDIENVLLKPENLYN
T1 sequence (O60894 27-148): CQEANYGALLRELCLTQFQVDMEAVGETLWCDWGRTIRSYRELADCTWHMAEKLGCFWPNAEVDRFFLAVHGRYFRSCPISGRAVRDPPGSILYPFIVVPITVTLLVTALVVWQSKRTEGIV
Radioligand Binding Assay. The compounds of invention were solubilized and carried through serial dilutions using 100% DMSO. Aliquots from the compound serial dilutions were further diluted 25 fold into assay buffer (50 mM Tris-Cl pH 7.5, 5 mM MgCl2, 0.005% Triton X-100) and transferred (volume 50 μl) into 96 well assay plates. [^125I]-CGRP (Amersham Biosciences) was diluted to 60 pM in assay buffer and a volume of 50 μl was added to each well. SK—N-MC pellets were thawed, diluted in assay buffer with fresh 0.1% mammalian protease inhibitor cocktail (Sigma), and homogenized again. SK—N-MC homogenate (5 μg/well) was added in a volume of 100 μl. The assay plates were then incubated at room temperature for 2 h. Assays were stopped by addition of excess cold wash buffer (20 mM Tris-Cl pH 7.5, 0.1% BSA) immediately followed by filtration over glass fiber filters (Whatman GF/B) previously soaked in 0.5% PEI. Non-specific binding was defined with 1 μM beta-CGRP. Protein bound radioactivity was determined using a gamma or scintillation counter. The IC50 was defined as the concentration of a compound of invention required to displace 50% of radioligand binding.
Background: In a radioligand displacement assay an active substance lowers the binding of a labelled ligand.
The compound `O=C(C[C@@H]1Cc2cc(Br)c3[nH]nc(Br)c3c2CN(CC(F)(F)F)C1=O)N1CCC(c2cc3cccc(F)c3[nH]c2=O)CC1` yielded an IC50 of 0.1 to 10 nM.
Turning to `O=C1OCc2c(cc(Br)c3[nH]ncc23)C[C@H]1CC(=O)N1CCC(c2cc3ccccc3[nH]c2=O)CC1`, the IC50 was 0.1 to 10 nM.
Still for that read-out and setting: for `O=C(C[C@@H]1Cc2cc(Br)c3[nH]nc(Br)c3c2CN(CC(F)(F)F)C1=O)N1CCC(c2cc3ccccc3[nH]c2=O)CC1` the value was 0.1 to 10 nM.

Still in this assay, the particulars now being: Table 2, displacement of [125I]-CGRP.
With `O=C(NC1Cc2ccc3[nH]ncc3c2CN(CCc2ccncc2)C1=O)N1CCC(N2Cc3ccccc3NC2=O)CC1` (centres unmarked), the half-maximal inhibitory concentration (IC50) is 0.1 to 10 nM.
On the same count and under the same terms, for `CC(C)(C)CN1Cc2c(cc(Cl)c3[nH]ncc23)C[C@@H](CC(=O)N2CCC(N3C(=O)CN(c4ccccc4)C3=O)CC2)C1=O` the value was 10 to 100 nM; for `CC(C)(C)CN1Cc2c(ccc3[nH]ncc23)C[C@@H](NC(=O)N2CCC3(CC2)CNC(=O)c2ccccc23)C1=O`, over 1000 nM.
Same read-out and setting: under `O=C(N[C@@H]1Cc2ccc3[nH]ncc3c2CN(CCN2CCOCC2)C1=O)N1CCC(N2Cc3ccccc3NC2=O)CC1` stands 10 to 100 nM; under `O=C1NCCC2(CCN(C(=O)N[C@@H]3Cc4ccc5[nH]ncc5c4CN(Cc4ccc(C(F)(F)F)cc4)C3=O)CC2)N1`, 100 to 1000 nM.
On the same count and under the same terms, for `O=C1Nc2ccccc2CC1N1CCN(C(=O)C[C@@H]2Cc3ccc4[nH]ncc4c3CN(Cc3ccccc3)C2=O)CC1` (some centres unmarked) the value was 100 to 1000 nM.
As to `O=C(C[C@@H]1Cc2cc(Br)c3[nH]ncc3c2CN(CC2CC2)C1=O)N1CCC(c2cc3ccccc3[nH]c2=O)CC1`, the half-inhibitory concentration (IC50) was 0.1 to 10 nM.
`CC(C)(C)CN1Cc2c(cc(Cl)c3[nH]ncc23)C[C@@H](CC(=O)Nc2ccc3c(c2)CCC2(C3)NC(=O)NC2=O)C1=O` (some centres unmarked) gave a 50% inhibitory concentration (IC50) of 0.1 to 10 nM.
Turning to `CC(C)(C)CN1Cc2c(cc(Cl)c3[nH]ncc23)C[C@@H](CC(=O)Nc2ccc3c(c2)CC2(C3)NC(=O)NC2=O)C1=O` (some centres unmarked), the IC50 lay within 10 to 100 nM.
On the same count and under the same terms, for `O=C1Nc2ccccc2C2(CCN(C(=O)NC3Cc4ccc5[nH]ncc5c4CN(CCc4ccncc4)C3=O)CC2)N1` (centres unmarked) the value was 100 to 1000 nM.
Turning to `O=C(C[C@@H]1Cc2cc(Cl)c3[nH]ncc3c2CN(Cc2cccnc2)C1=O)N1CCC(c2cc(-c3ccccc3)[nH]n2)CC1`, the concentration for half-maximal inhibition (IC50) lay in the range of 10 to 100 nM.
As for `COCCN1Cc2c(cc(Br)c3[nH]ncc23)C[C@@H](CC(=O)N2CCC(c3cc4cccc(F)c4[nH]c3=O)CC2)C1=O`, the IC50 lay within 10 to 100 nM.
The same measure, in the same setting: for `O=C1Nc2ccccc2CC1C1CCN(C(=O)C[C@@H]2Cc3ccc4[nH]ncc4c3CN(Cc3ccccc3)C2=O)CC1` (some centres unmarked) the value was 100 to 1000 nM; for `CC(C)(C)CN1Cc2c(cc(Cl)c3[nH]ncc23)C[C@@H](CC(=O)N2CCC(c3cc4ccccc4c[n+]3[O-])CC2)C1=O`, 10 to 100 nM.
For `CC(C)(C)CN1Cc2c(ccc3[nH]ncc23)C[C@@H](CC(=O)N2CCC(n3cc(-c4ccccc4)[nH]c3=O)CC2)C1=O`, the IC50 was in the range of 10 to 100 nM.
On the same count and under the same terms, for `CC(C)(C)CN1Cc2c(ccc3[nH]ncc23)C[C@@H](CC(=O)N2CCC(N3Cc4ccccc4NC3=O)CC2)C1=O` the value was 10 to 100 nM.
Compound `CC(C)(C)CN1Cc2c(ccc3[nH]ncc23)C[C@@H](CC(=O)N2CCC(N3Cc4ccccc4CC3=O)CC2)C1=O` gave a concentration for half-maximal inhibition (IC50) of 100 to 1000 nM.

For the next assay, the target named is T1, CGRP receptor. Briefly: Cyclic AMP Functional Antagonism Assay. The format is cell-based. Set-up: cells that endogenously express the human CGRP receptor; endogenous in cells; host or cells: SK-N-MC cells. Conditions: Table 2; SK-N-MC cells, 0.3 nM CGRP, 30 min; read-out: cAMP Function IC50. The procedure:
Cyclic AMP Functional Antagonism Assay. Antagonism of the compounds of invention was determined by measuring the formation of cyclic AMP (adenosine 3′5′-cyclic monophosphate) in SK—N-MC cells that endogenously express the human CGRP receptor. CGRP receptor complex is coupled with Gs protein and CGRP binding to this complex leads to the cyclic AMP production via Gs-dependent activation of an adenylate cyclase (Juaneda C et al., TiPS, 2000; 21:432-438; incorporated by reference herein). Consequently, CGRP receptor antagonists inhibit CGRP-induced cyclic AMP formation in SK—N-MC cells (Doods H et al., Br J Pharmacol, 2000; 129(3):420-423); incorporated by reference herein). For cyclic AMP measurements SK—N-MC cells were incubated with 0.3 nM CGRP alone or in the presence of various concentrations of the compounds of invention for 30 min at room temperature. Compounds of invention were pre-incubated with SK—N-MC cells for 15 min before the addition of CGRP to allow receptor occupancy (Edvinsson et al., Eur J Pharmacol, 2001, 415:39-44; incorporated by reference herein). Cyclic AMP was extracted using the lysis reagent and its concentration was determined by radioimmunoassay using RPA559 cAMP SPA Direct Screening Assay Kit (Amersham Pharmacia Biotech). IC50 values were calculated using Excel fit.
On to `O=C(NC1Cc2ccc3[nH]ncc3c2CN(CCc2ccncc2)C1=O)N1CCC(N2Cc3ccccc3NC2=O)CC1` (centres unmarked), for which the IC50 lay in the range of 0.1 to 10 nM.
Turning to `CC(C)(C)CN1Cc2c(ccc3[nH]ncc23)C[C@@H](CC(=O)N2CCC(n3cc(-c4ccccc4)[nH]c3=O)CC2)C1=O`, the 50% inhibitory concentration (IC50) lay in the range of 10 to 100 nM.
Same read-out and setting: under `CC(C)(C)CN1Cc2c(ccc3[nH]ncc23)C[C@@H](CC(=O)N2CCC(N3Cc4ccccc4NC3=O)CC2)C1=O` stands 0.1 to 10 nM.
